Results taken from patent US8546338B2, “Self-assembling hydrogels based on dicephalic peptide amphiphiles” (Johnson & Johnson Consumer Companies, Inc., priority 2010, dated 2013).
Values joined by “and” are separate entries in the source; they are usually repeats but may differ in a detail not shown here. Identical values can stand only once.

Columns and labels:
[1] = system: human umbilical cord cells (hUTCs); experiment: Cell viability of encapsulated hUTCs in DPA gels (Live/Dead); format: cell-based; details: 2 wt % gel, 100,000 cells, after 1, 2 and 3 weeks
Experimental: The viability and proliferation of cells in the gels was evaluated by encapsulating human umbilical cord cells (hUTCs) in the gels. hUTCs were isolated as described in U.S. Pat. No. 7,510,873. Cells were thawed from storage and cultured for four days in Hayflick media. After four days, the cells were trypsinized and counted by the Guava ViaCount methodology (Millipore, Billerica, Mass.). Cells were re-suspended in Hayflick media at a density of 1,000,000 cells/ml. Encapsulation of the cells in the gels was achieved by adding 100 μl cell suspension to 100 μl of a 4 wt % DPA solution in ultrapure in a 24 well plate, resulting in a final DPA concentration of 2%. The gels were incubated for 1 h at 37° C., 5% CO2 after which 1000 μl media was added on top of the gel. Cells were incubated at 37° C., 5% CO2. Every 3-4 days of culture, 500 μl media was replaced.
After mixing of the cell suspension and 4% DPA solution by pipetting up and down, the protocol described above was modified by adding 10 μl 100 mg/ml calcium chloride solution upon which gelation occurred. Final concentrations are 2% in DPA and 100,000 cells. Control gels without cells were prepared by using pure media and additional cell only and cells with calcium chloride controls were prepared as standard 2D culture. After 7 days of culture, the gels were assayed with Live/Dead assay for cell viability and Invitrogen CyQuant GR assay for cell proliferation (Invitrogen, Carlsbad, Calif.). The Live/Dead was performed as described in the provided protocol but at half the […] concentration to reduce non-specific fluorescence due to dye absorption. […] The cells in the gels contained a lot of viable cells (FIG. 410). No dead cells could be observed in the gels. Therefore, the viability of these cells in the gels is very high (>95%).
In a second experiment, 100,000 hUTC cells were encapsulated in 2 wt % Gly-Phe-Gly-Phe-Gly-Phe-Gly-Gln-Gln-Ser (SEQ ID NO: 8) DPA gels. The cells were cultured for 3 weeks and cells were assessed after 1, 2 and 3 weeks with Live/Dead.

[2] = system: human kidney derived cells (hKDCs); experiment: Cell viability of encapsulated hKDCs in DPA gels (Live/Dead); format: cell-based; details: 2% DPA gel, after 1, 2 and 3 weeks
Experimental: The viability and proliferation of cells in the gels was evaluated by encapsulating human kidney derived cells (hKDCs) in the gels. hKDC were isolated as described in US Patent Publication Number 2008/0112939. Cells were thawed from storage and cultured for four days in renal epithelial growth media (REGM) media. After four days, the cells were trypsinized and counted by the Guava ViaCount (Millipore, Billerica, Mass.) methodology. Cells were re-suspended in REGM media at a density of 1,000,000 cells/ml. Encapsulation of the cells in the gels was achieved by adding 100 μl cell suspension to 100 μl of a 4 wt % DPA solution in ultrapure in a 24 well plate, resulting in a final DPA concentration of 2%. The gels were incubated for 1 h at 37° C., 5% CO2 after which 1000 μl media was added on top of the gel. Cells were incubated at 37° C., 5% CO2. Every 3-4 days of culture, 500 μl media was replaced. The cells were cultured for 3 weeks and cells were assessed after 1, 2 and 3 weeks with Live/Dead.

[3] = Oscillating rheology, time sweep (kinetics of formation); format: physicochemical; details: 2 wt % gels in DMEM
Experimental: (§1) Oscillating rheology by the parallel plates method (radius=25 mm) was performed on 400 μl gels to assess the mechanical strengths of gels. Time sweeps were performed to evaluate kinetics of formation at a constant strain rate of 1% and frequency of 1 rad/s. Strain sweeps were performed ranging from 1-100% strain in increments of 2% at a constant frequency of 1 rad/s. Cross-over of G′ and G″ was used to determine the gel point and point of breakdown. Time sweeps were initiated immediately after mixing the solutions that lead to DPA hydrogel formation. In the strain sweeps, the gels were allowed to form on the plate for 30 minutes before the measurement is initiated.
The gelation process was initiated on the plate at 25° C. by the addition of 10 μl of 100 mg/ml calcium chloride solution to a solution of the DPA in DMEM.

[4] = Gelation experiments: inversion test for self-supporting hydrogels; format: physicochemical; details: for Gelation (self-supporting gel on inversion), DMEM: DPA solution in water mixed 1:1 with DMEM; for Gelation (self-supporting gel on inversion), PBS / Gelation (self-supporting gel on inversion), Water: final concentrations 1, 2 and 4 weight percent tested; for Concentration at which gel forms, Water / Gelation (self-supporting gel on inversion), Water: in water; for Concentration at which gel forms, DMEM: mixed with DMEM
Experimental: Inversion tests were performed to determine qualitatively under which conditions the various DPAs formed self-supporting hydrogels. The various types of DPAs were tested by dissolving them in ultrapure water (>18 MΩ resistivity) at double the desired final concentration followed by mixing in a 1:1 ratio with different liquid mediums. Gelation was deemed to have occurred if the gel supported its own weight upon inverting the vial (FIG. 3A and FIG. 3B). Gelation was tested at final concentrations of 1, 2 and 4 weight percent. We tested phosphate buffered saline (PBS), and Dulbecco's modified eagle media (DMEM) as liquid medium. Typical scale is 100 μl each of DPA solution in water and mixing medium but other scales have been tested. Finally, if no spontaneous gelation occurs, 10 μl of 100 mg/cc calcium chloride solution was added to induce gelation.

[5] = Oscillating rheology, strain sweep; format: physicochemical; details: 2 wt % gels in DMEM, formed for 30 minutes
Experimental: as §1
Strains sweeps were performed on 2 wt % Gly-Phe-Gly-Phe-Gly-Phe-Gly-Gln-Gln-Ser (SEQ ID NO: 8), Gly-Phe-Gly-Phe-Gly-Phe-Gly-Gln-Gly-Ser (SEQ ID NO: 12) and Gly-Phe-Gly-Phe-Gly-Phe-Gly-Asn-Asn-Ser (SEQ ID NO: 11) gels in DMEM (FIG. 8). Gels were allowed to form for 30 minutes before the experiment was initiated.

[6] = listed as Gly-Phe-Gly-Phe-Gly-Phe-Gly-Gln-Gln-Ser(DPA)_ (SEQ ID NO: 8)

In the case of CCCCCCCCCCCCCCCC(=O)NC(C(=O)NCC(=O)N[C@@H](Cc1ccccc1)C(=O)NCC(=O)N[C@@H](Cc1ccccc1)C(=O)NCC(=O)N[C@@H](Cc1ccccc1)C(=O)NCC(=O)N[C@@H](CCC(N)=O)C(=O)N[C@@H](CCC(N)=O)C(=O)N[C@@H](CO)C(=O)O)C(=O)NCC(=O)N[C@@H](Cc1ccccc1)C(=O)NCC(=O)N[C@@H](Cc1ccccc1)C(=O)NCC(=O)N[C@@H](Cc1ccccc1)C(=O)NCC(=O)N[C@@H](CCC(N)=O)C(=O)N[C@@H](CCC(N)=O)C(=O)N[C@@H](CO)C(=O)O [Gly-Phe-Gly-Phe-Gly-Phe-Gly-Gln-Gln-Ser], the “Viability of hUTC cells, Live/Dead” value [1] is reported as “very limited numbers of dead cells were detected”, the “Viability of hKDC cells, Live/Dead” value [2] is reported as “very limited numbers of dead cells were detected” and the “Gel point after mixing” value [3] is reported as 74 s. For the same compound, the “Behaviour of gel after disruption by vortexing” value ([4]; 4 wt % in water) was “reform when left alone”, the “Time to self-supporting gel” value ([4]; 4 wt % in water) was “approx. 5 minutes” and the “Gelation (self-supporting gel on inversion), DMEM” value ([4]; no calcium added) was “Yes and Yes,”. For the same compound, the “Gelation (self-supporting gel on inversion), DMEM” value ([4]; no calcium added, listed as Gly-Phe-Gly-Phe-Gly-Phe-Gly-Gln-Gln-Ser(DPA)_ (SEQ ID NO: 8)) was “Yes,”, the “Concentration at which gel forms, PBS” value [4] was 4 wt % and 4% and the “Gelation (self-supporting gel on inversion), PBS” value [4] was “Yes and Yes,”. The “Gelation (self-supporting gel on inversion), PBS” value [4, 6] was “Yes,”, the “Concentration at which gel forms, PBS” value [4, 6] was 4% and the “Concentration at which gel forms, Water” value [4] was 4 wt % and 4%. The “Gelation (self-supporting gel on inversion), Water” value [4] was “Yes and Yes,”, the “Gelation (self-supporting gel on inversion), Water” value [4, 6] was “Yes,” and the “Concentration at which gel forms, Water” value [4, 6] was 4%. The “Concentration at which gel forms, DMEM” value ([4]; no calcium added) was 2%, the “Concentration at which gel forms, DMEM” value ([4]; no supplemental calcium) was 2 wt % and the “Strain at which gel re-crosses the transition point (breakdown)” value [5] was 99 % strain. For the same compound, the “Strain at which gel re-crosses the transition point (breakdown)” value ([5]; listed as Gln-Gln-Ser (SEQ ID NO: 28)) was about 100 % strain.
